Laboratory results taken from US20230085307A1, “PYRIDAZINONE COMPOUND AND HERBICIDE” (NISSAN CHEMICAL CORPORATION, priority 2019, published 2023).

Columns and labels:
barnyard grass [1] = experiment: Test Example 3: herbicidal effect by foliage application, Wagner pot (Table 18, symbol H); type: in vivo, barnyard grass (Echinochloa crus-galli); conditions: 320 g/ha
Procedure, shortened: (§1)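 Plants were sown in alluvial soil held under 0.1–0.5 cm standing water and grown 14 days in a greenhouse at 25–30 °C. An emulsifiable formulation, water-diluted to the set dose, was then sprayed onto the foliage, and effects were scored three weeks later using previously defined criteria.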

Chinese sprangletop = experiment: Test Example 3: herbicidal effect by foliage application, Wagner pot (Table 18, symbol D); type: in vivo, chinese sprangletop (Leptochloa chinensis); conditions: 320 g/ha
Procedure, shortened: as §1

rice flat sedge = experiment: Test Example 3: herbicidal effect by foliage application, Wagner pot (Table 18, symbol E); type: in vivo, rice flat sedge (Cyperus iria); conditions: 320 g/ha
Procedure, shortened: as §1

southern crabgrass [2] = experiment: Test Example 4: herbicidal effect by soil treatment (Table 19, symbol F); type: in vivo, southern crabgrass (Digitaria ciliaris); conditions: amount of applied herbicide 320 g/ha
Procedure, shortened: (§2)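 Scoring uses the grading scale of an earlier test, three weeks post-application. Treatment consists of spraying a diluted emulsion formulation across the surface of sterilized diluvial soil in which seeds are buried near 1.5 cm deep; boxes are kept in a greenhouse between 25° C. and 30° C.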

green foxtail [3] = experiment: Test Example 4: herbicidal effect by soil treatment (Table 19, symbol G); type: in vivo, green foxtail (Setaria viridis); conditions: amount of applied herbicide 320 g/ha
Procedure, shortened: as §2

barnyard grass [4] = experiment: Test Example 4: herbicidal effect by soil treatment (Table 19, symbol H); type: in vivo, barnyard grass (Echinochloa crus-galli); conditions: amount of applied herbicide 320 g/ha
Procedure, shortened: as §2

wild oat [5] = experiment: Test Example 4: herbicidal effect by soil treatment (Table 19, symbol I); type: in vivo, wild oat (Avena fatua); conditions: amount of applied herbicide 320 g/ha
Procedure, shortened: as §2

blackgrass [6] = experiment: Test Example 4: herbicidal effect by soil treatment (Table 19, symbol J); type: in vivo, blackgrass (Alopecurus myosuroides); conditions: amount of applied herbicide 320 g/ha
Procedure, shortened: as §2

Italian ryegrass [7] = experiment: Test Example 4: herbicidal effect by soil treatment (Table 19, symbol K); type: in vivo, Italian ryegrass (Lolium multiflorum); conditions: amount of applied herbicide 320 g/ha
Procedure, shortened: as §2

windgrass [8] = experiment: Test Example 4: herbicidal effect by soil treatment (Table 19, symbol L); type: in vivo, windgrass (Apera spica-venti); conditions: amount of applied herbicide 320 g/ha
Procedure, shortened: as §2

velvetleaf [9] = experiment: Test Example 4: herbicidal effect by soil treatment (Table 19, symbol M); type: in vivo, velvetleaf (Abutilon theophrasti); conditions: amount of applied herbicide 320 g/ha
Procedure, shortened: as §2

redroot pigweed [10] = experiment: Test Example 4: herbicidal effect by soil treatment (Table 19, symbol N); type: in vivo, redroot pigweed (Amaranthus retroflexus); conditions: amount of applied herbicide 320 g/ha
Procedure, shortened: as §2

lambsquarters [11] = experiment: Test Example 4: herbicidal effect by soil treatment (Table 19, symbol O); type: in vivo, lambsquarters (Chenopodium album); conditions: amount of applied herbicide 320 g/ha
Procedure, shortened: as §2

chickweed [12] = experiment: Test Example 4: herbicidal effect by soil treatment (Table 19, symbol P); type: in vivo, common chickweed (Stellaria media); conditions: amount of applied herbicide 320 g/ha
Procedure, shortened: as §2

persian speedwell [13] = experiment: Test Example 4: herbicidal effect by soil treatment (Table 19, symbol R); type: in vivo, Persian speedwell (Veronica persica); conditions: amount of applied herbicide 320 g/ha
Procedure, shortened: as §2

southern crabgrass [14] = experiment: Test Example 5: herbicidal effect by foliage application, plastic box (Table 20, symbol F); type: in vivo, southern crabgrass (Digitaria ciliaris); conditions: amount of applied herbicide 320 g/ha; foliage application after 14-day growth; evaluated three weeks after application
Procedure, shortened: (§3)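 Post-emergence foliar test in sterilized diluvial soil. Compound applied as water-diluted emulsion at a predetermined rate to 14-day-old plants; evaluation at three weeks.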

green foxtail [15] = experiment: Test Example 5: herbicidal effect by foliage application, plastic box (Table 20, symbol G); type: in vivo, green foxtail (Setaria viridis); conditions: amount of applied herbicide 320 g/ha; foliage application after 14-day growth; evaluated three weeks after application
Procedure, shortened: as §3

barnyard grass [16] = experiment: Test Example 5: herbicidal effect by foliage application, plastic box (Table 20, symbol H); type: in vivo, barnyard grass (Echinochloa crus-galli); conditions: amount of applied herbicide 320 g/ha; foliage application after 14-day growth; evaluated three weeks after application
Procedure, shortened: as §3

wild oat [17] = experiment: Test Example 5: herbicidal effect by foliage application, plastic box (Table 20, symbol I); type: in vivo, wild oat (Avena fatua); conditions: amount of applied herbicide 320 g/ha; foliage application after 14-day growth; evaluated three weeks after application
Procedure, shortened: as §3

blackgrass [18] = experiment: Test Example 5: herbicidal effect by foliage application, plastic box (Table 20, symbol J); type: in vivo, blackgrass (Alopecurus myosuroides); conditions: amount of applied herbicide 320 g/ha; foliage application after 14-day growth; evaluated three weeks after application
Procedure, shortened: as §3

Italian ryegrass [19] = experiment: Test Example 5: herbicidal effect by foliage application, plastic box (Table 20, symbol K); type: in vivo, Italian ryegrass (Lolium multiflorum); conditions: amount of applied herbicide 320 g/ha; foliage application after 14-day growth; evaluated three weeks after application
Procedure, shortened: as §3

windgrass [20] = experiment: Test Example 5: herbicidal effect by foliage application, plastic box (Table 20, symbol L); type: in vivo, windgrass (Apera spica-venti); conditions: amount of applied herbicide 320 g/ha; foliage application after 14-day growth; evaluated three weeks after application
Procedure, shortened: as §3

velvetleaf [21] = experiment: Test Example 5: herbicidal effect by foliage application, plastic box (Table 20, symbol M); type: in vivo, velvetleaf (Abutilon theophrasti); conditions: amount of applied herbicide 320 g/ha; foliage application after 14-day growth; evaluated three weeks after application
Procedure, shortened: as §3

redroot pigweed [22] = experiment: Test Example 5: herbicidal effect by foliage application, plastic box (Table 20, symbol N); type: in vivo, redroot pigweed (Amaranthus retroflexus); conditions: amount of applied herbicide 320 g/ha; foliage application after 14-day growth; evaluated three weeks after application
Procedure, shortened: as §3

lambsquarters [23] = experiment: Test Example 5: herbicidal effect by foliage application, plastic box (Table 20, symbol O); type: in vivo, lambsquarters (Chenopodium album); conditions: amount of applied herbicide 320 g/ha; foliage application after 14-day growth; evaluated three weeks after application
Procedure, shortened: as §3

chickweed [24] = experiment: Test Example 5: herbicidal effect by foliage application, plastic box (Table 20, symbol P); type: in vivo, common chickweed (Stellaria media); conditions: amount of applied herbicide 320 g/ha; foliage application after 14-day growth; evaluated three weeks after application
Procedure, shortened: as §3

persian speedwell [25] = experiment: Test Example 5: herbicidal effect by foliage application, plastic box (Table 20, symbol R); type: in vivo, Persian speedwell (Veronica persica); conditions: amount of applied herbicide 320 g/ha; foliage application after 14-day growth; evaluated three weeks after application
Procedure, shortened: as §3

Cc1nn(C)c(=O)c(-c2c(-c3ccc(SC(C)C)cc3)sc3c(Cl)cccc23)c1O [4-096] was tested, and the “herbicidal effect on barnyard grass (H)” value (barnyard grass [1]) was 5 (Herbicidal rate of 90% or more (almost completely withered)), the “herbicidal effect on Chinese sprangletop (D)” value (Chinese sprangletop) was 3 (Herbicidal rate of 40% or more and less than 70%) and the “herbicidal effect on rice flat sedge (E)” value (rice flat sedge) was 3 (Herbicidal rate of 40% or more and less than 70%). For the same compound, the “Herbicidal effect by soil treatment, F: southern crabgrass” value (southern crabgrass [2]) was 0 (Herbicidal rate of 5% or less (almost no effect)), the “Herbicidal effect by soil treatment, G: green foxtail” value (green foxtail [3]) was 0 (Herbicidal rate of 5% or less (almost no effect)) and the “Herbicidal effect by soil treatment, H: barnyard grass” value (barnyard grass [4]) was 0 (Herbicidal rate of 5% or less (almost no effect)). For the same compound, the “Herbicidal effect by soil treatment, I: wild oat” value (wild oat [5]) was 0 (Herbicidal rate of 5% or less (almost no effect)), the “Herbicidal effect by soil treatment, J: blackgrass” value (blackgrass [6]) was 0 (Herbicidal rate of 5% or less (almost no effect)) and the “Herbicidal effect by soil treatment, K: Italian ryegrass” value (Italian ryegrass [7]) was 0 (Herbicidal rate of 5% or less (almost no effect)). For the same compound, the “Herbicidal effect by soil treatment, L: windgrass” value (windgrass [8]) was 0 (Herbicidal rate of 5% or less (almost no effect)), the “Herbicidal effect by soil treatment, M: velvetleaf” value (velvetleaf [9]) was 0 (Herbicidal rate of 5% or less (almost no effect)) and the “Herbicidal effect by soil treatment, N: redroot pigweed” value (redroot pigweed [10]) was 5 (Herbicidal rate of 90% or more (almost completely withered)). The “Herbicidal effect by soil treatment, O: lambsquarters” value (lambsquarters [11]) was 3 (Herbicidal rate of 40% or more and less than 70%), the “Herbicidal effect by soil treatment, P: chickweed” value (chickweed [12]) was 3 (Herbicidal rate of 40% or more and less than 70%) and the “Herbicidal effect by soil treatment, R: persian speedwell” value (persian speedwell [13]) was 4 (Herbicidal rate of 70% or more and less than 90%). The “Herbicidal effect by foliage application, F: southern crabgrass” value (southern crabgrass [14]) was 0 (Herbicidal rate of 5% or less (almost no effect)), the “Herbicidal effect by foliage application, G: green foxtail” value (green foxtail [15]) was 3 (Herbicidal rate of 40% or more and less than 70%) and the “Herbicidal effect by foliage application, H: barnyard grass” value (barnyard grass [16]) was 4 (Herbicidal rate of 70% or more and less than 90%). The “Herbicidal effect by foliage application, I: wild oat” value (wild oat [17]) was 2 (Herbicidal rate of 20% or more and less than 40%), the “Herbicidal effect by foliage application, J: blackgrass” value (blackgrass [18]) was 3 (Herbicidal rate of 40% or more and less than 70%) and the “Herbicidal effect by foliage application, K: Italian ryegrass” value (Italian ryegrass [19]) was 4 (Herbicidal rate of 70% or more and less than 90%). The “Herbicidal effect by foliage application, L: windgrass” value (windgrass [20]) was 3 (Herbicidal rate of 40% or more and less than 70%), the “Herbicidal effect by foliage application, M: velvetleaf” value (velvetleaf [21]) was 3 (Herbicidal rate of 40% or more and less than 70%) and the “Herbicidal effect by foliage application, N: redroot pigweed” value (redroot pigweed [22]) was 5 (Herbicidal rate of 90% or more (almost completely withered)). For the same compound, the “Herbicidal effect by foliage application, O: lambsquarters” value (lambsquarters [23]) was 4 (Herbicidal rate of 70% or more and less than 90%), the “Herbicidal effect by foliage application, P: chickweed” value (chickweed [24]) was 5 (Herbicidal rate of 90% or more (almost completely withered)) and the “Herbicidal effect by foliage application, R: persian speedwell” value (persian speedwell [25]) was 5 (Herbicidal rate of 90% or more (almost completely withered)).

For COc1cccc(-c2sc3c(C)cccc3c2-c2c(O)c(C)nn(C)c2=O)c1 [4-108], the “herbicidal effect on barnyard grass (H)” value (barnyard grass [1]) was 4 (Herbicidal rate of 70% or more and less than 90%), the “herbicidal effect on Chinese sprangletop (D)” value (Chinese sprangletop) was 0 (Herbicidal rate of 5% or less (almost no effect)) and the “herbicidal effect on rice flat sedge (E)” value (rice flat sedge) was 5 (Herbicidal rate of 90% or more (almost completely withered)). The “Herbicidal effect by soil treatment, F: southern crabgrass” value (southern crabgrass [2]) was 2 (Herbicidal rate of 20% or more and less than 40%), the “Herbicidal effect by soil treatment, G: green foxtail” value (green foxtail [3]) was 0 (Herbicidal rate of 5% or less (almost no effect)) and the “Herbicidal effect by soil treatment, H: barnyard grass” value (barnyard grass [4]) was 0 (Herbicidal rate of 5% or less (almost no effect)). The “Herbicidal effect by soil treatment, I: wild oat” value (wild oat [5]) was 0 (Herbicidal rate of 5% or less (almost no effect)), the “Herbicidal effect by soil treatment, J: blackgrass” value (blackgrass [6]) was 2 (Herbicidal rate of 20% or more and less than 40%) and the “Herbicidal effect by soil treatment, K: Italian ryegrass” value (Italian ryegrass [7]) was 1 (Herbicidal rate of 5% or more and less than 20%). The “Herbicidal effect by soil treatment, L: windgrass” value (windgrass [8]) was 0 (Herbicidal rate of 5% or less (almost no effect)), the “Herbicidal effect by soil treatment, M: velvetleaf” value (velvetleaf [9]) was 3 (Herbicidal rate of 40% or more and less than 70%) and the “Herbicidal effect by soil treatment, N: redroot pigweed” value (redroot pigweed [10]) was 5 (Herbicidal rate of 90% or more (almost completely withered)). The “Herbicidal effect by soil treatment, O: lambsquarters” value (lambsquarters [11]) was 4 (Herbicidal rate of 70% or more and less than 90%), the “Herbicidal effect by soil treatment, P: chickweed” value (chickweed [12]) was 1 (Herbicidal rate of 5% or more and less than 20%) and the “Herbicidal effect by soil treatment, R: persian speedwell” value (persian speedwell [13]) was 3 (Herbicidal rate of 40% or more and less than 70%). The “Herbicidal effect by foliage application, F: southern crabgrass” value (southern crabgrass [14]) was 3 (Herbicidal rate of 40% or more and less than 70%), the “Herbicidal effect by foliage application, G: green foxtail” value (green foxtail [15]) was 3 (Herbicidal rate of 40% or more and less than 70%) and the “Herbicidal effect by foliage application, H: barnyard grass” value (barnyard grass [16]) was 2 (Herbicidal rate of 20% or more and less than 40%). For the same compound, the “Herbicidal effect by foliage application, I: wild oat” value (wild oat [17]) was 0 (Herbicidal rate of 5% or less (almost no effect)), the “Herbicidal effect by foliage application, J: blackgrass” value (blackgrass [18]) was 4 (Herbicidal rate of 70% or more and less than 90%) and the “Herbicidal effect by foliage application, K: Italian ryegrass” value (Italian ryegrass [19]) was 5 (Herbicidal rate of 90% or more (almost completely withered)). The “Herbicidal effect by foliage application, L: windgrass” value (windgrass [20]) was 0 (Herbicidal rate of 5% or less (almost no effect)), the “Herbicidal effect by foliage application, M: velvetleaf” value (velvetleaf [21]) was 4 (Herbicidal rate of 70% or more and less than 90%) and the “Herbicidal effect by foliage application, N: redroot pigweed” value (redroot pigweed [22]) was 4 (Herbicidal rate of 70% or more and less than 90%). The “Herbicidal effect by foliage application, O: lambsquarters” value (lambsquarters [23]) was 4 (Herbicidal rate of 70% or more and less than 90%), the “Herbicidal effect by foliage application, P: chickweed” value (chickweed [24]) was 5 (Herbicidal rate of 90% or more (almost completely withered)) and the “Herbicidal effect by foliage application, R: persian speedwell” value (persian speedwell [25]) was 5 (Herbicidal rate of 90% or more (almost completely withered)).
